In patent publication US8912121B2, “Herbicidal compositions comprising 4-amino-3-chloro-5-fluoro-6-(4-chloro-2-fluoro-3-methoxyphenyl)pyridine-2-carboxylic acid or a derivative thereof and certain PS II inhibitors” (Dow Agrosciences LLC, priority 2012, dated 2014):

Test system: ECHCG (Echinochloa crus-galli, barnyardgrass)
Assay: Pre-emergence soil-applied mixtures, greenhouse
Format: in vivo, Echinochloa crus-galli (L.) P. Beauv.
Source text: Seeds or nutlets of the desired test plant species were planted in a soil matrix prepared by mixing a loam soil (32 percent silt, 23 percent clay, and 45 percent sand, with a pH of about 6.5 and an organic matter content of about 1.9 percent) and calcareous grit in an 80 to 20 ratio. The soil matrix was contained in plastic pots with a volume of 1 quart and a surface area of 83.6 square centimeters (cm^2).
Treatments consisted of the benzyl ester of 4-amino-3-chloro-5-fluoro-6-(4-chloro-2-fluoro-3-methoxy-phenyl)pyridine-2-carboxylic acid (compound A) formulated as an SC (suspension concentrate) and various herbicidal components alone and in combination. Forms of compound A were applied on an acid equivalent basis.
Other herbicidal components were applied on an acid equivalent or active ingredient basis and included the PSII-inhibiting herbicides, atrazine formulated as Atrazine® 90WDG, metribuzin formulated as Metribuzin 75DF, simazine formulated as Princep Caliber 90, tebuthiuron formulated as Spike 80DF, cyanazine (technical grade material), hexazinone (technical grade material), linuron (technical grade material), terbuthylazine (technical grade material), and diuron formulated as Diuron 4L.
Treatment requirements were calculated based upon the rates being tested, the concentration of active ingredient or acid equivalent in the formulation, and a 12 mL application volume at a rate of 187 L/ha.
For treatments comprised of formulated compounds, measured amounts of compounds were placed individually in 25 mL glass vials and diluted in a volume of 1.25% (v/v) Agri-Dex® crop oil concentrate (COC) to obtain 12× stock solutions. […] Application solutions were prepared by adding an appropriate amount of each stock solution (e.g., 1 mL) and diluted to the appropriate final concentrations with the addition of 10 mL of an aqueous mixture of 1.25% (v/v) COC so that the final spray solutions contained 1.25% (v/v) COC.
For treatments comprised of technical compounds, weighed amounts can be placed individually in 25 mL glass vials and dissolved in a volume of 97:3 (v/v) acetone/DMSO to obtain 12× stock solutions. […]
For treatments comprised of formulated and technical compounds, weighed amounts of the technical materials can be placed individually in 25 mL glass vials and dissolved in a volume of 97:3 (v/v) acetone/DMSO to obtain 12× stock solutions, and measured amounts of the formulated compounds can be placed individually in 25 mL glass vials and diluted in a volume of 1.5% (v/v) COC or water to obtain 12× stock solutions. […]

## COc1c(Cl)ccc(-c2nc(C(=O)OCc3ccccc3)c(Cl)c(N)c2F)c1F [Compound A Benzyl Ester, benzyl ester of 4-amino-3-chloro-5-fluoro-6-(4-chloro-2-fluoro-3-methoxy-phenyl)pyridine-2-carboxylic acid]
Compound A Benzyl Ester 16 g ae/ha
  Visual Weed Control (%)-28 DAA ECHCG Obs: 0%
Compound A Benzyl Ester 32 g ae/ha
  Visual Weed Control (%)-28 DAA ECHCG Obs: 0%
